The source made the active and inactive calls. No rule for the calls is given here.
Tested on: CCRIS mutagenicity, Ames/micronucleus/aberration tests
Assay: CCRIS mutagenicity studies
Details: Test System: AMES SALMONELLA TYPHIMURIUM
[1] = Strain/Indicator: TA98, Metabolic Activation: NONE, Method: STANDARD PLATE
[2] = Strain/Indicator: TA100, Metabolic Activation: NONE, Method: STANDARD PLATE
[3] = Strain/Indicator: TA98, Metabolic Activation: RAT, LIVER, S-9, AROCLOR 1254, Method: STANDARD PLATE
[4] = Strain/Indicator: TA100, Metabolic Activation: RAT, LIVER, S-9, AROCLOR 1254, Method: STANDARD PLATE

For `CC(CF)NCC(O)COc1cccc2[nH]c3ccccc3c12` (stereo not given), the mutagenic call [1] was “inactive; negative”, the mutagenic call (Strain/Indicator: TA98, Metabolic Activation: RAT LIVER S-9, AROCLOR 1254, 5%, Method: STANDARD PLATE) was “inactive; negative” and the mutagenic call [2] was “active; positive”. For the same molecule, the mutagenic call (Strain/Indicator: TA100, Metabolic Activation: RAT LIVER S-9, AROCLOR 1254, 5%, Method: STANDARD PLATE) was “active; positive”, the mutagenic call (Strain/Indicator: TA1535, Metabolic Activation: NONE, Method: STANDARD PLATE) was “active; positive” and the mutagenic call (Strain/Indicator: TA1535, Metabolic Activation: RAT LIVER S-9, AROCLOR 1254, 5%, Method: STANDARD PLATE) was “active; positive”.
With `O=C/C(Br)=C/c1ccccc1` the mutagenic call (Strain/Indicator: TA98, Metabolic Activation: NONE, Method: PREINCUBATION) was “active; positive”, the mutagenic call (Strain/Indicator: TA98, Metabolic Activation: NONE, Method: PREINCUBATION, LIQUID INCUBATION) was “active; positive” and the mutagenic call [1] was “active; positive”. The mutagenic call (Strain/Indicator: TA98, Metabolic Activation: RAT, LIVER, S-9, AROCLOR 1254, Method: PREINCUBATION) was “active; positive”, the mutagenic call (Strain/Indicator: TA98, Metabolic Activation: RAT, LIVER, S-9, PCB, Method: STANDARD PLATE) was “active; positive” and the mutagenic call (Strain/Indicator: TA100, Metabolic Activation: NONE, Method: PREINCUBATION) was “active; positive”. For the same molecule, the mutagenic call [2] was “active; positive”, the mutagenic call (Strain/Indicator: TA100, Metabolic Activation: RAT, LIVER, S-9, AROCLOR 1254, Method: PREINCUBATION) was “inactive; negative” and the mutagenic call (Strain/Indicator: TA100, Metabolic Activation: RAT, LIVER, S-9, PCB, Method: STANDARD PLATE) was “active; positive”. The mutagenic call (Strain/Indicator: TA1535, Metabolic Activation: NONE, Method: PREINCUBATION) was “active; positive”, the mutagenic call (Strain/Indicator: TA1535, Metabolic Activation: NONE, Method: PREINCUBATION, LIQUID INCUBATION) was “active; positive” and the mutagenic call (Strain/Indicator: TA1535, Metabolic Activation: RAT, LIVER, S-9, AROCLOR 1254, Method: PREINCUBATION) was “inactive; negative”. For the same molecule, the mutagenic call (Strain/Indicator: TA1538, Metabolic Activation: NONE, Method: PREINCUBATION) was “active; positive”, the mutagenic call (Strain/Indicator: TA1538, Metabolic Activation: NONE, Method: PREINCUBATION, LIQUID INCUBATION) was “active; positive” and the mutagenic call (Strain/Indicator: TA1538, Metabolic Activation: RAT, LIVER, S-9, AROCLOR 1254, Method: PREINCUBATION) was “active; positive”. The mutagenic call (Strain/Indicator: TA2637, Metabolic Activation: NONE, Method: STANDARD PLATE) was “active; positive” and the mutagenic call (Strain/Indicator: TA2637, Metabolic Activation: RAT, LIVER, S-9, PCB, Method: STANDARD PLATE) was “active; positive”.
For `Nc1ccc(-c2ccc(N)c([N+](=O)[O-])c2)cc1[N+](=O)[O-]`, the mutagenic call (Strain/Indicator: TA98(1,8-DNP6), Metabolic Activation: NONE, Method: STANDARD PLATE) was “inactive; negative”, the mutagenic call (Strain/Indicator: TA98(1,8-DNP6), Metabolic Activation: S-9, Method: STANDARD PLATE) was “active; positive” and the mutagenic call [1] was “active; positive”. For the same molecule, the mutagenic call (Strain/Indicator: TA98, Metabolic Activation: S-9, Method: STANDARD PLATE) was “active; positive”, the mutagenic call [2] was “inactive; negative” and the mutagenic call (Strain/Indicator: TA100, Metabolic Activation: S-9, Method: STANDARD PLATE) was “active; positive”.
For `O=C(O)CCC(=O)N(O)c1ccc(Cl)cc1`, the mutagenic call [1] was “inactive; negative”, the mutagenic call [3] was “active; positive” and the mutagenic call [2] was “inactive; negative”. For the same molecule, the mutagenic call [4] was “active; positive”.
For `c1ccc2c(c1)ccc1cc3cnccc3cc12`, the mutagenic call [3] was “active; positive” and the mutagenic call [4] was “active; positive”.
